The values below come from the NIST ThermoML archive (doi:10.1016/j.fluid.2010.03.010).

A short description of the data set: xn = mol fraction of the nth substance listed. The following applies: 298.03 K, 101.3 kPa, Liquid, Taylor dispersion method.

Molecules are shown by their SMILES. Where “and” joins values, the source holds several entries; their conditions need not be identical. Equal entries are not always repeated.

Take `CCCC[n+]1ccn(C)c1.O=S(=O)([N-]S(=O)(=O)C(F)(F)F)C(F)(F)F` + O: the binary diffusion coefficient (x2 = 0) is 4e-08 m2/s [middle of 4 runs].
For the compound `CCCCn1cc[n+](C)c1.N#CN=C=[N-]` [1-butyl-3-methylimidazolium dicyanamide] + O, the binary diffusion coefficient (x2 = 0) is 2.08e-08 m2/s and 2.13e-08 m2/s and 2.11e-08 m2/s and 2.03e-08 m2/s and 1.98e-08 m2/s and 2.05e-08 m2/s and 2e-08 m2/s and 2.28e-08 m2/s.
Consider `CCOS(=O)(=O)[O-].CCn1cc[n+](C)c1` [1-ethyl-3-methylimidazolium ethyl sulfate] + O, for which, where the note is “x1 = 0”, the binary diffusion coefficient was 9.62e-08 m2/s and 9.15e-08 m2/s and 9.84e-08 m2/s and 9.79e-08 m2/s.
